The results in this text go back to ChEMBL document CHEMBL1139037, “New Gly-Pro-Glu (GPE) analogues: expedite solid-phase synthesis and biological activity” (Bioorg Med Chem Lett, 2006).

Molecules are shown by their SMILES. Non-standard residues stand in square brackets, D forms with d. Residues, ends and D or L forms follow the SMILES beside them. Oic = O=C(O)[C@@H]1C[C@@H]2CCCC[C@@H]2N1; Hyp = O=C(O)[C@@H]1C[C@@H](O)CN1; Pip = O=C(O)[C@@H]1CCCCN1; Ac6c = NC1(C(=O)O)CCCCC1; Nle = CCCC[C@H](N)C(=O)O; Aze = O=C(O)[C@@H]1CCN1; Ac3c = NC1(C(=O)O)CC1

One experiment concerns the target Glutamate NMDA receptor (Rattus norvegicus) (UniProt P35439+Q00959+Q00960+Q00961+Q62645+Q8VHN2+Q9R1M7). In words: Neuroprotective activity in rat hippocampal neurons at 100 uM. To be noted: Hippocampus. The format is functional, tissue-based.
With `NCC(=O)NC1(C(=O)N[C@@H](CCC(=O)O)C(=O)O)CC1` (H-Gly-[Ac3c]-Glu-OH), the Activity stood at 27%.

Regarding `NCC(=O)NC1(C(=O)N[C@@H](CCC(=O)O)C(=O)O)CCCCC1` (H-Gly-[Ac6c]-Glu-OH), the Activity was 27%.

As to `NCC(=O)N1CC[C@H]1C(=O)N[C@@H](CCC(=O)O)C(=O)O` (H-Gly-[Aze]-Glu-OH), the Activity was 27%.

The next experiment has as its target Glutamate NMDA receptor. Put plainly: Displacement of L-[3H]glutamate from glutamate receptor in rat brain synaptic membrane. It is filed as cell membranes.
Settings: not given
The compound `NCC(=O)NC1(C(=O)N[C@@H](CCC(=O)O)C(=O)O)CC1` (H-Gly-[Ac3c]-Glu-OH) came in with a Ki of over 100 µM.

`C[C@@H](N)C(=O)N1CCC[C@H]1C(=O)N[C@@H](CCC(=O)O)C(=O)O` came in with a Ki of 5.4 µM.

`N[C@@H](Cc1ccccc1)C(=O)N1CCC[C@H]1C(=O)N[C@@H](CCC(=O)O)C(=O)O` (H-Phe-Pro-Glu-OH) came in with a Ki of 4.85 µM.

`C[C@H](N)C(=O)N1CCC[C@H]1C(=O)N[C@@H](CCC(=O)O)C(=O)O` gave a Ki of 2.66 µM.

As to `NCC(=O)N1CCCC[C@H]1C(=O)N[C@@H](CCC(=O)O)C(=O)O` (H-Gly-[Pip]-Glu-OH), affinity was put at a Ki of 2.39 µM.

For the compound `NCCCC[C@H](N)C(=O)N1CCC[C@H]1C(=O)N[C@@H](CCC(=O)O)C(=O)O` (H-Lys-Pro-Glu-OH), the inhibitory constant (Ki) was determined as 22 µM.

`NCC(=O)N1C[C@@H](N)C[C@H]1C(=O)N[C@@H](CCC(=O)O)C(=O)O` gave a Ki of 15.5 µM.

`NCC(=O)N1[C@H](C(=O)N[C@@H](CCC(=O)O)C(=O)O)C[C@@H]2CCCC[C@@H]21` (H-Gly-[Oic]-Glu-OH): the inhibition constant (Ki) came out at 22.4 µM. The Ki values of the last two compounds are within 1.5-fold of each other.

`CCCC[C@H](N)C(=O)N1CCC[C@H]1C(=O)N[C@@H](CCC(=O)O)C(=O)O` (H-[Nle]-Pro-Glu-OH) had a Ki of 19.5 µM.

As for `NCC(=O)N1C2CCC1(C(=O)N[C@@H](CCC(=O)O)C(=O)O)CC2`, the Ki was found to be 0.48 µM.

`NCC(=O)NC1(C(=O)N[C@@H](CCC(=O)O)C(=O)O)CCCCC1` (H-Gly-[Ac6c]-Glu-OH) registered a Ki of over 100 µM.

`CC[C@H](C)[C@H](N)C(=O)N1CCC[C@H]1C(=O)N[C@@H](CCC(=O)O)C(=O)O` (H-Ile-Pro-Glu-OH) showed a Ki of over 100 µM.

Compound `N[C@@H](CC(=O)O)C(=O)N1CCC[C@H]1C(=O)N[C@@H](CCC(=O)O)C(=O)O` (H-Asp-Pro-Glu-OH) yielded a Ki of 41.3 µM.

`NCC(=O)N1CC[C@H]1C(=O)N[C@@H](CCC(=O)O)C(=O)O` (H-Gly-[Aze]-Glu-OH): the Ki was over 100 µM.

Take `NCC(=O)N1C[C@H](O)C[C@H]1C(=O)N[C@@H](CCC(=O)O)C(=O)O` (H-Gly-[Hyp]-Glu-OH): the Ki was 9.24 µM.

By Ki is commonly meant the dissociation constant of the complex between target and ligand, obtained from inhibition or displacement. Read a high Ki as lower affinity.
